In patent US20120283100A1, “CONTROLLING PLANTHOPPERS” (priority 2011, published 2012):
“And” between values parts separate entries of the source, which are not always exact repeats. Identical values can stand only once.

System: brown planthoppers, Nilaparvata lugens
Assay: Field efficacy on brown planthopper in transplanted rice (small-plot trials A-D)
Format: in vivo
Conditions: Sulfoxaflor 50 g/ha, Chlorpyrifos 500 g/ha, mixture 50 + 500 g/ha; for % Control: Trial A
Description: Applications were made to transplanted rice, Oryza sativa, using standard small-plot efficacy methods. Chemicals were diluted in water and all treatments were applied using a backpack sprayer calibrated to deliver 500 liters of spray per hectare. Experimental plots measured 5 by 10 meters and each treatment was replicated three times in each trial. At the specified intervals after treatment, brown planthoppers, Nilaparvata lugens, were counted in 10 randomly selected hills per plot. Data were transformed to percent control relative to the untreated plots, then subjected to analysis of variance, and means were separated using Tukey's HSD (p=0.1). Expected control was calculated using the method of Colby and compared to observed control. See the Table Section for the results of the Field Trials.

SMILES	% Control (10 DAT)	% Control at DAT (Trial B, 10 DAT)	% Control (1 DAT, relative to untreated plots)	% Control (3 DAT)	% Control (7 DAT)	% Control (15 DAT)	% Control at DAT (Trial B, 1 DAT)	% Control at DAT (Trial B, 3 DAT)	% Control at DAT (Trial B, 7 DAT)	% Control at DAT (Trial B, 15 DAT)	% Control at DAT (Trial C, 1 DAT)	% Control at DAT (Trial C, 3 DAT)	% Control at DAT (Trial C, 7 DAT)	% Control at DAT (Trial C, 10 DAT)	% Control at DAT (Trial C, 15 DAT)	% Control at DAT (Trial D, 1 DAT)	% Control at DAT (Trial D, 7 DAT)	% Control at DAT (Trial D, 10 DAT)	% Control at DAT (Trial D, 15 DAT)
CC(c1ccc(C(F)(F)F)nc1)S(C)(=O)=NC#N (stereo not drawn) [Sulfoxaflor]	6.8%	48.2%	–	–	–	–	–	–	–	–	–	–	–	–	–	–	–	–	–
CCOP(=S)(OCC)Oc1nc(Cl)c(Cl)cc1Cl [Chlorpyrifos]	7.8 b % and 7.8%	39.8 b % and 39.8%	13.7 bc % and 13.7%	37.5 b % and 37.5%	32.4 b % and 32.4%	21.0 b % and 21%	45.2 ab % and 45.2%	64.8 b % and 64.8%	54.0 b % and 54%	57.8 b % and 57.8%	53.4 ab % and 53.4%	67.0 b % and 67%	59.7 b % and 59.7%	10.5 b % and 10.5%	37.9 b % and 37.9%	59.6 c % and 59.6%	53.8 c % and 53.8%	18.2 c % and 18.2%	27.0 c % and 27%
